Experimental data taken from US6887661B1, “Recombinant bHLH-PAS/JHR polypeptide and its use to screen potential insecticides” (American Cyanamid Company, priority 1997, dated 2005).

Tests used:
[1] = tested on: DNA BD of the glucocorticoid receptor fused to the AhR; settings: CHO mammalian cells; cited from earlier work
GAL4-AhR construct = settings: yeast cells; construct constitutively active without ligand; cited from earlier work
[2] = tested on: Met mutant Drosophila flies; settings: cited from earlier work; for resistance to topical application: Met gene mutation
[3] = tested on: Met^3 flies transformed with genomic fragments; test: Methoprene resistance test of progeny of Met^3 transformants (rescue of Met phenotype); assay type: in vivo, Drosophila; settings: three diagnostic amounts of methoprene
Procedure: P-element mediated germline transformation was carried out with DNA fragments isolated from phage clones derived from a wild-type genomic library. Genomic fragments were isolated following restriction enzyme digestions of phage obtained from the iso-i strain genomic library. (Tamkun et al. Proc. Natl. Acad. Sci. USA 81:5140 (1984)). Fragments were either subcloned into Bluescript (Stratagene Co., Ca.), then excised with an EcoRI-NotI double digest and subcloned into the pCaSpeR 4 transformation vector (Thummel et al. Drosophila Inform. Serv. 71:150 (1992)), or were subcloned directly into the pCaSpeR 4 vector. Purified plasmids together with pp25.1wc transformation “helper” DNA in a ratio of 2-3:1 were injected into dechorionated ywMet^3 embryos as described. (A. Spradling in Drosophila—A Practical Approach (D. B. Roberts, Ed. IRL, Oxford, 1986, page 175). Go progeny were individually crossed with y w Met^3, and transformants recognized by restoration of eye color ranging from light orange to red. For each DNA fragment, 3-5 transformants from separate Go females were recovered and their progeny tested for methoprene resistance.
Progeny of transformants were tested on three diagnostic amounts of methoprene as described in Wilson, Arch. Insect Biochem. Physiol. 32:641 (1996)). […]

Drosophila = settings: JH analog insecticide; cited from earlier work
[4] = tested on: JH cytosolic binding protein; settings: cited from earlier work

Clc1cc2c(cc1Cl)Oc1cc(Cl)c(Cl)cc1O2 [dioxin]
expression of reporter gene linked to a glucocorticoid response element [1]: induced expression of a reporter gene | transactivation of LacZ reporter gene by GAL4-AhR construct (GAL4-AhR construct): enhanced transactivation

CCOC(=O)NCCOc1ccc(Oc2ccccc2)cc1 [fenoxycarb]
resistance to topical application [2]: resistance

COC(=O)/C=C(\C)CC[C@@H]1O[C@@]1(C)CC[C@H]1OC1(C)C [JH bisepoxide]
resistance to topical application [2]: resistance

CC(COc1ccc(Oc2ccccc2)cc1)Oc1ccccn1 (stereo not shown) [pyriproxyfen]
resistance to topical application [2]: resistance

COC(C)(C)CCC[C@H](C)C/C=C/C(C)=C/C(=O)OC(C)C [methoprene, [E,E]-1-methoxy-3,7,11-trimethyl-2,4-dodecadienoic acid 1-methylethyl ester]
level of methoprene resistance compared with Met^3 ([3]; Met^3 transformants with fragments St-X and K-H): undiminished | methoprene resistance after transformation ([3]; Met^3 transformed with the 6.234 Kb St-H fragment): resistance was lost | resistance to both the toxic and morphogenetic effects ([2]; Met mutant versus wild-type flies): ≤ 100 fold | resistance to both the toxic and morphogenetic effects conferred by Met^A3 and Met^K17 alleles ([2]; P-element alleles Met^A3 and Met^K17): conferred resistance | toxicity to Drosophila (Drosophila): high toxicity

COC(=O)/C=C(\C)CC/C=C(\C)CC[C@H]1OC1(C)C [JH III, [R-(E,E)]-9-(3,3-dimethyloxiranyl)-3,7-dimethyl-2,6-nonadienoic acid methyl ester]
binding to cytosolic juvenile hormone-binding protein ([4]; Drosophila melanogaster cytosolic protein): saturable, high-affinity binding | lower binding affinity of JH cytosolic binding protein from Met flies than from Met+ flies ([4]; Met flies versus Met+ flies): 10 fold | resistance to topical application [2]: resistance
